From patent US20250353853A1, “FLAVIVIRUS INHIBITORS” (IRBM S.P.A., priority 2022, published 2025)
Counter-ions that a name gives are not always drawn.

The compounds below were run on ZIKV replicon in Vero cells (assay: ZIKV Replication Inhibition Assay (replicon, NanoLuc)). Conditions: Zika virus, Vero, 72 h, read-out: Zika Replicon EC50.

SMILES	EC50 [nM]
Cc1cnncc1-c1ccc(C[n+]2cc([N-]C(=O)Nc3cccc(C(F)(F)F)c3)on2)cc1 [Example 93, (3-(4-(5-methylpyridazin-4-yl)benzyl)-1,2,3-oxadiazol-3-ium-5-yl)((3-(trifluoromethyl)phenyl)carbamoyl)amide]	< 100
Cc1noc(C)c1-c1cccc(C[n+]2cc([N-]C(=O)Nc3cccc(C(F)(F)F)c3)on2)c1 [Example 94, (3-(3-(3,5-dimethylisoxazol-4-yl)benzyl)-1,2,3-oxadiazol-3-ium-5-yl)((3-(trifluoromethyl)phenyl)carbamoyl)amide]	100 to 1000
Cc1c(-c2ccc(C[n+]3cc([N-]C(=O)Nc4cccc(C(F)(F)F)c4)on3)cc2)cnn1C [Example 95, (3-(4-(1,5-dimethyl-1H-pyrazol-4-yl)benzyl)-1,2,3-oxadiazol-3-ium-5-yl)((3-(trifluoromethyl)phenyl)carbamoyl)amide]	100 to 1000
Cc1nn(C)cc1-c1ccc(C[n+]2cc([N-]C(=O)Nc3cccc(C(F)(F)F)c3)on2)cc1 [Example 96, (3-(4-(1,3-dimethyl-1H-pyrazol-4-yl)benzyl)-1,2,3-oxadiazol-3-ium-5-yl)((3-(trifluoromethyl)phenyl)carbamoyl)amide]	100 to 1000
Cc1nn(C)c(C)c1-c1ccc(C[n+]2cc([N-]C(=O)Nc3cccc(C(F)(F)F)c3)on2)cc1 [Example 97]	< 100
Cc1ncn(C)c1-c1ccc(C[n+]2cc([N-]C(=O)Nc3cccc(C(F)(F)F)c3)on2)cc1 [Example 98, (3-(4-(1,4-dimethyl-1H-imidazol-5-yl)benzyl)-1,2,3-oxadiazol-3-ium-5-yl)((3-(trifluoromethyl)phenyl)carbamoyl)amide]	100 to 1000
Cc1noc(C)c1-c1ccc([C@H](CN)[n+]2cc([N-]C(=O)Nc3cccc(C(F)(F)F)c3)on2)cc1 [Example 99, (R)-(3-(2-amino-1-(4-(3,5-dimethylisoxazol-4-yl)phenyl)ethyl)-1,2,3-oxadiazol-3-ium-5-yl)((3-(trifluoromethyl)phenyl)carbamoyl)amide formate]	< 100
O=C([N-]c1c[n+](Cc2csc(-c3cncnc3)c2)no1)Nc1cccc(C(F)(F)F)c1 [Example 100, (3-((5-(pyrimidin-5-yl)thiophen-3-yl)methyl)-1,2,3-oxadiazol-3-ium-5-yl)((3-(trifluoromethyl)phenyl)carbamoyl)amide]	100 to 1000
Cc1cc(C[n+]2cc([N-]C(=O)Nc3cccc(C(F)(F)F)c3)on2)ccc1-c1cncnc1C [Example 101, (3-(3-methyl-4-(4-methylpyrimidin-5-yl)benzyl)-1,2,3-oxadiazol-3-ium-5-yl)((3-(trifluoromethyl)phenyl)carbamoyl)amide]	< 100
NC[C@@H](c1ccc(-c2cncnc2)cc1)[n+]1cc([N-]C(=O)Nc2cccc(C(F)(F)F)c2)on1 [Example 102, (R)-(3-(2-amino-1-(4-(pyrimidin-5-yl)phenyl)ethyl)-1,2,3-oxadiazol-3-ium-5-yl)((3-(trifluoromethyl)phenyl)carbamoyl)amide formate]	100 to 1000
O=C([N-]c1c[n+](Cc2ccc(-c3cncnc3)nc2)no1)Nc1cccc(C(F)(F)F)c1 [Example 103, (3-((6-(pyrimidin-5-yl)pyridin-3-yl)methyl)-1,2,3-oxadiazol-3-ium-5-yl)((3-(trifluoromethyl)phenyl)carbamoyl)amide]	100 to 1000
Cc1noc(C)c1-c1ccc(C[n+]2cc([N-]C(=O)Nc3cccc(C(F)(F)F)c3)on2)cn1 [Example 104, (3-((6-(3,5-dimethylisoxazol-4-yl)pyridin-3-yl)methyl)-1,2,3-oxadiazol-3-ium-5-yl)((3-(trifluoromethyl)phenyl)carbamoyl)amide]	< 100
Cc1ncc(-c2ccc(C[n+]3cc([N-]C(=O)Nc4cccc(C(F)(F)F)c4)on3)cc2)n1C [Example 105, (3-(4-(1,2-dimethyl-1H-imidazol-5-yl)benzyl)-1,2,3-oxadiazol-3-ium-5-yl)((3-(trifluoromethyl)phenyl)carbamoyl)amide]	100 to 1000
N#Cc1ncncc1-c1ccc(C[n+]2cc([N-]C(=O)Nc3cccc(C(F)(F)F)c3)on2)cc1 [Example 106, (3-(4-(4-cyanopyrimidin-5-yl)benzyl)-1,2,3-oxadiazol-3-ium-5-yl)((3-(trifluoromethyl)phenyl)carbamoyl)amide]	100 to 1000
O=C([N-]c1c[n+](Cc2ccc(-c3c(F)nc[nH]c3=O)cc2)no1)Nc1cccc(C(F)(F)F)c1 [Example 107, (3-(4-(4-fluoro-6-oxo-1,6-dihydropyrimidin-5-yl)benzyl)-1,2,3-oxadiazol-3-ium-5-yl)((3-(trifluoromethyl)phenyl)carbamoyl)amide]	1000 to 20000
O=C([N-]c1c[n+](Cc2ccc(-c3cncnc3)cn2)no1)Nc1cccc(C(F)(F)F)c1 [Example 108, (3-((5-(pyrimidin-5-yl)pyridin-2-yl)methyl)-1,2,3-oxadiazol-3-ium-5-yl)((3-(trifluoromethyl)phenyl)carbamoyl)amide]	100 to 1000

SMILES	EC50 [nM]
Cc1noc(C)c1-c1ccc(C[n+]2cc([N-]C(=O)Nc3cccc(C(F)(F)F)c3)on2)nc1 [Example 109, (3-((5-(3,5-dimethylisoxazol-4-yl)pyridin-2-yl)methyl)-1,2,3-oxadiazol-3-ium-5-yl)((3-(trifluoromethyl)phenyl)carbamoyl)amide]	< 100
Cc1ncncc1-c1csc(C[n+]2cc([N-]C(=O)Nc3cccc(C(F)(F)F)c3)on2)c1 [Example 110, (3-((4-(4-methylpyrimidin-5-yl)thiophen-2-yl)methyl)-1,2,3-oxadiazol-3-ium-5-yl)((3-(trifluoromethyl)phenyl)carbamoyl)amide]	100 to 1000
COc1ncnc(C)c1-c1ccc(C[n+]2cc([N-]C(=O)Nc3cccc(C(F)(F)F)c3)on2)cc1 [Example 111, (3-(4-(4-methoxy-6-methylpyrimidin-5-yl)benzyl)-1,2,3-oxadiazol-3-ium-5-yl)((3-(trifluoromethyl)phenyl)carbamoyl)amide]	< 100
Cc1ncnc(OCCO)c1-c1ccc(C[n+]2cc([N-]C(=O)Nc3cccc(C(F)(F)F)c3)on2)cc1 [Example 112, (3-(4-(4-(2-hydroxyethoxy)-6-methylpyrimidin-5-yl)benzyl)-1,2,3-oxadiazol-3-ium-5-yl)((3-(trifluoromethyl)phenyl)carbamoyl)amide]	< 100
COc1ncc(-c2ccc(C[n+]3cc([N-]C(=O)Nc4cccc(Cl)c4)on3)cc2)c(C)n1 [Example 113, ((3-chlorophenyl)carbamoyl)(3-(4-(2-methoxy-4-methylpyrimidin-5-yl)benzyl)-1,2,3-oxadiazol-3-ium-5-yl)amide]	100 to 1000
COc1ncc(-c2ccc(C[n+]3cc([N-]C(=O)Nc4cccc(C#N)c4)on3)cc2)c(C)n1 [Example 114, ((3-cyanophenyl)carbamoyl)(3-(4-(2-methoxy-4-methylpyrimidin-5-yl)benzyl)-1,2,3-oxadiazol-3-ium-5-yl)amide]	1000 to 20000
COc1ncc(-c2ccc(C[n+]3cc([N-]C(=O)Nc4ccccc4)on3)cc2)c(C)n1 [Example 115, (3-(4-(2-methoxy-4-methylpyrimidin-5-yl)benzyl)-1,2,3-oxadiazol-3-ium-5-yl)(phenylcarbamoyl)amide]	1000 to 20000
Cc1noc(C)c1-c1ccc([C@@H](CN)[n+]2cc([N-]C(=O)Nc3cccc(C(F)(F)F)c3)on2)cc1 [Example 116, (S)-(3-(2-amino-1-(4-(3,5-dimethylisoxazol-4-yl)phenyl)ethyl)-1,2,3-oxadiazol-3-ium-5-yl)((3-(trifluoromethyl)phenyl)carbamoyl)amide formate]	100 to 1000
O=C([N-]c1c[n+](Cc2ccc(-c3cnn(C4CCNCC4)c3)nc2)no1)Nc1cccc(C(F)(F)F)c1 [Example 117, (3-((6-(1-(piperidin-4-yl)-1H-pyrazol-4-yl)pyridin-3-yl)methyl)-1,2,3-oxadiazol-3-ium-5-yl)((3-(trifluoromethyl)phenyl)carbamoyl)amide]	1000 to 20000
Cc1ncn(C)c1-c1ccc(C[n+]2cc([N-]C(=O)Nc3cccc(C(F)(F)F)c3)on2)nc1 [Example 118, (3-((5-(1,4-dimethyl-1H-imidazol-5-yl)pyridin-2-yl)methyl)-1,2,3-oxadiazol-3-ium-5-yl)((3-(trifluoromethyl)phenyl)carbamoyl)amide]	100 to 1000
O=C([N-]c1c[n+](Cc2ccc(-c3cccc4c3CNC4)cn2)no1)Nc1cccc(C(F)(F)F)c1 [Example 119, (3-((5-(isoindolin-4-yl)pyridin-2-yl)methyl)-1,2,3-oxadiazol-3-ium-5-yl)((3-(trifluoromethyl)phenyl)carbamoyl)amide]	100 to 1000
O=C([N-]c1c[n+](Cc2ccc(-c3cnn(C4CCNCC4)c3)cn2)no1)Nc1cccc(C(F)(F)F)c1 [Example 120, (3-((5-(1-(piperidin-4-yl)-1H-pyrazol-4-yl)pyridin-2-yl)methyl)-1,2,3-oxadiazol-3-ium-5-yl)((3-(trifluoromethyl)phenyl)carbamoyl)amide]	1000 to 20000
NCc1ccccc1-c1ccc(C[n+]2cc([N-]C(=O)Nc3cccc(C(F)(F)F)c3)on2)nc1 [Example 121, (3-((5-(2-(aminomethyl)phenyl)pyridin-2-yl)methyl)-1,2,3-oxadiazol-3-ium-5-yl)((3-(trifluoromethyl)phenyl)carbamoyl)amide]	100 to 1000
O=C([N-]c1c[n+](Cc2ccc(B(O)O)cn2)no1)Nc1cccc(C(F)(F)F)c1 [Example 122, (3-((5-boronopyridin-2-yl)methyl)-1,2,3-oxadiazol-3-ium-5-yl)((3-(trifluoromethyl)phenyl)carbamoyl)amide]	> 20000
Cc1ncnc(OCCN(C)C)c1-c1ccc(C[n+]2cc([N-]C(=O)Nc3cccc(C(F)(F)F)c3)on2)nc1 [Example 123, ((3-((5-(4-(2-(metheyliumyl(methyl)ammonio)ethoxy)-6-methylpyrimidin-5-yl)pyridin-2-yl)methyl)-1,2,3-oxadiazol-3-ium-5-yl)((3-(trifluoromethyl)phenyl)carbamoyl)amide) (2,2,2-trifluoroacetate)]	100 to 1000
